Legend:
acne = experiment: Effect against acne
Source text: The etiology of acne is not completely understood, but, in some instances, it is believed that acne has a bacterial etiology.

[1] = Toxicity tests for regulatory authorities
Source text: PMD is the active ingredient in our MOSIGUARD™ insect repellant. We have conducted tests to show regulatory authorities that PMD is not toxic, and we have marketed our insect repellent for several years and there has been no report of any significant toxicity thereof. Potentially, therefore, the medical uses of PMD may be topical or systemic. Systemic administration may be by way of an oral dosage form or by a parenteral route, such as by intra-venous injection.

Solubility in water = type: physicochemical
Source text: A composition for use in accordance with the invention can comprise PMD and a carrier.

E. coli = experiment: Cis PMD MIC/MBC determination, broth dilution and sub-culture; type: cell-based; set-up: key to bacterial growth: A “+” indicates bacterial growth; a “−” indicates that bacterial growth is prevented; details: for bacterial growth: overnight 37° C.
Procedure: MIC—minimum inhibitory concentration. This is the concentration of PMD which prevents bacterial growth. […] Thus, for E. Coli below, the minimum inhibitory concentration is 0.25% PMD in 1.25% ethanol.
MBC—minimum bactericidal concentration. This is the concentration of PMD which kills the bacteria. A “ ? ” indicates live bacteria are present.
Cis PMD was dissolved in Absolute Ethanol (0.2 g/ml) to give 20% solution. This was further diluted in water to give 10% in 50% EtOH. 200 μl was added to 0.8 ml Iso-sensitest broth to give a 2% solution in 10% EtOH. Serial 2-fold dilutions in ISB were then carried out and 20 μl E. coli (McFarlane 0.5) were added to each tube and incubated overnight at 37° C. After 18 hours, tubes showing no growth were sub-cultured.

certain strains of MRSA = experiment: Tests against MRSA; type: cell-based, Staphylococcus aureus
Source text: In a further aspect, therefore, the invention provides the use of PMD against MRSA.

MRSA 15 = experiment: Cis PMD MIC/MBC determination, broth dilution and sub-culture; type: cell-based, Staphylococcus aureus; set-up: key: A “+” indicates bacterial growth; a “−” indicates that bacterial growth is prevented; details: overnight 37° C.
S. aureus (oxford) = experiment: as above; type: cell-based; set-up: key: A “+” indicates bacterial growth; a “−” indicates that bacterial growth is prevented; details: overnight 37° C.
S. pyogenes = experiment: as above; type: cell-based; set-up: key: A “+” indicates bacterial growth; a “−” indicates that bacterial growth is prevented; details: overnight 37° C.
P. aeruginosa = experiment: as above; type: cell-based; set-up: key: A “+” indicates bacterial growth; a “−” indicates that bacterial growth is prevented; details: overnight 37° C.
MRSA 16 = experiment: as above; type: cell-based, Staphylococcus aureus; set-up: key: A “+” indicates bacterial growth; a “−” indicates that bacterial growth is prevented; details: overnight 37° C.

For `C[C@H]1CC[C@H](C(C)(C)O)[C@H](O)C1` (racemic) [PMD, p-menthane-3,8-diol], the effectiveness against acne (acne) was “effective”, the toxicity [1] was “not toxic” and the solubility in water (Solubility in water) was “poorly soluble”. For the same compound, the minimum inhibitory concentration (E. coli; in 1.25% ethanol) was 0.25%, the minimum bactericidal concentration (E. coli; in 2.5% ethanol) was 0.5% and the “effectiveness against MRSA” value (certain strains of MRSA) was “effective”.

For `CC1CCC(C(C)(C)O)C(O)C1` (stereo not drawn) [Cis PMD], the bacterial growth (MRSA 15; 0.06% PMD, 0.3% alcohol) was “+”, the bacterial growth (MRSA 15; 0.125% PMD, 0.6% alcohol) was “+” and the bacterial growth (MRSA 15; 0.25% PMD, 1.25% alcohol) was “+”. The bacterial growth (MRSA 15; 0.5% PMD, 2.5% alcohol) was “−”, the bacterial growth (MRSA 15; 2% PMD, 10% alcohol) was “−” and the bacterial growth (S. aureus (oxford); 0.06% PMD, 0.3% alcohol) was “+”. For the same compound, the bacterial growth (S. aureus (oxford); 0.125% PMD, 0.6% alcohol) was “+”, the bacterial growth (S. aureus (oxford); 0.25% PMD, 1.25% alcohol) was “+” and the bacterial growth (S. aureus (oxford); 0.5% PMD, 2.5% alcohol) was “−”. For the same compound, the bacterial growth (S. aureus (oxford); 1% PMD, 5% alcohol) was “−”, the bacterial growth (S. aureus (oxford); 2% PMD, 10% alcohol) was “−” and the bacterial growth (E. coli; 0.06% PMD, 0.3% alcohol) was “+”. For the same compound, the bacterial growth (E. coli; 0.125% PMD, 0.6% alcohol) was “+”, the bacterial growth (E. coli; 0.25% PMD, 1.25% alcohol) was “−” and the bacterial growth (E. coli; 0.5% PMD, 2.5% alcohol) was “−”. For the same compound, the bacterial growth (E. coli; 1% PMD, 5% alcohol) was “−”, the bacterial growth (E. coli; 2% PMD, 10% alcohol) was “−” and the bacterial growth (S. pyogenes; 0.06% PMD, 0.3% alcohol) was “+”. For the same compound, the bacterial growth (S. pyogenes; 0.125% PMD, 0.6% alcohol) was “+”, the bacterial growth (S. pyogenes; 0.25% PMD, 1.25% alcohol) was “−” and the bacterial growth (S. pyogenes; 0.5% PMD, 2.5% alcohol) was “−”. The bacterial growth (S. pyogenes; 1% PMD, 5% alcohol) was “−”, the bacterial growth (S. pyogenes; 2% PMD, 10% alcohol) was “−” and the bacterial growth (P. aeruginosa; 0.06% PMD, 0.3% alcohol) was “+”. The bacterial growth (P. aeruginosa; 0.125% PMD, 0.6% alcohol) was “+”, the bacterial growth (P. aeruginosa; 0.25% PMD, 1.25% alcohol) was “+” and the bacterial growth (P. aeruginosa; 0.5% PMD, 2.5% alcohol) was “−”. The bacterial growth (P. aeruginosa; 1% PMD, 5% alcohol) was “−”, the bacterial growth (P. aeruginosa; 2% PMD, 10% alcohol) was “−” and the bacterial growth (MRSA 16; 0.06% PMD, 0.3% alcohol) was “+”. For the same compound, the bacterial growth (MRSA 16; 0.125% PMD, 0.6% alcohol) was “+”, the bacterial growth (MRSA 16; 0.25% PMD, 1.25% alcohol) was “+” and the bacterial growth (MRSA 16; 0.5% PMD, 2.5% alcohol) was “−”. The bacterial growth (MRSA 16; 1% PMD, 5% alcohol) was “−” and the bacterial growth (MRSA 16; 2% PMD, 10% alcohol) was “−”.
